Values joined by “and” are separate entries in the source; they are usually repeats but may differ in a detail not shown here. Equal entries are not always repeated. Toxic doses and inconclusive results are not listed.
System: L1210 leukemia ip in BDF1 mice, survival T/C
Experiment: NCI In Vivo Anticancer Drug Screen. Data for tumor model L1210 Leukemia (intraperitoneal) in B6D2F1 (BDF1) mice
Conditions: endpoint: mean survival time, higher = longer survival
Procedure, shortened: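 In this screen, tumor-bearing mice given compound are compared to those given vehicle, and their survival values are reported as a treated-to-control quotient.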

[1] = dose: 100.0 mg/kg/injection, schedule: Q01DX009 (ip), vehicle: Klucel (hydroxypropylcellulose) (HPC)
[2] = dose: 200.0 mg/kg/injection, schedule: Q01DX009 (ip), vehicle: Klucel (hydroxypropylcellulose) (HPC)
[3] = dose: 100.0 mg/kg/injection, schedule: Q01DX001 (ip), vehicle: Klucel (hydroxypropylcellulose) (HPC)
[4] = dose: 200.0 mg/kg/injection, schedule: Q01DX001 (ip), vehicle: Klucel (hydroxypropylcellulose) (HPC)
[5] = dose: 400.0 mg/kg/injection, schedule: Q01DX001 (ip), vehicle: Klucel (hydroxypropylcellulose) (HPC)
[6] = dose: 50.0 mg/kg/injection, schedule: Q01DX001 (ip), vehicle: carboxymethylcellulose (CMC)
[7] = dose: 100.0 mg/kg/injection, schedule: Q01DX001 (ip), vehicle: carboxymethylcellulose (CMC)
[8] = dose: 200.0 mg/kg/injection, schedule: Q01DX001 (ip), vehicle: carboxymethylcellulose (CMC)
[9] = dose: 400.0 mg/kg/injection, schedule: Q01DX001 (ip), vehicle: carboxymethylcellulose (CMC)
[10] = dose: 100.0 mg/kg/injection, schedule: Q01DX001 (ip), vehicle: other
[11] = dose: 100.0 mg/kg/injection, schedule: Q04DX003 (ip), vehicle: Klucel (hydroxypropylcellulose) (HPC)
[12] = dose: 200.0 mg/kg/injection, schedule: Q04DX003 (ip), vehicle: Klucel (hydroxypropylcellulose) (HPC)
[13] = dose: 400.0 mg/kg/injection, schedule: Q04DX003 (ip), vehicle: Klucel (hydroxypropylcellulose) (HPC)
[14] = dose: 100.0 mg/kg/injection, schedule: Q04DX002 (ip), vehicle: gum acacia
[15] = dose: 200.0 mg/kg/injection, schedule: Q04DX002 (ip), vehicle: gum acacia
[16] = dose: 25.0 mg/kg/injection, schedule: Q01DX009 (ip), vehicle: saline with Tween-80
[17] = dose: 50.0 mg/kg/injection, schedule: Q01DX009 (ip), vehicle: saline with Tween-80

O=c1[nH]c2ccc([As](O)O)cc2[nH]1
T/C (dose: 12.5 mg/kg/injection, schedule: Q01DX009 (ip), vehicle: water): 109 % of control
T/C (dose: 25.0 mg/kg/injection, schedule: Q01DX009 (ip), vehicle: water): 110 % of control
T/C (dose: 50.0 mg/kg/injection, schedule: Q01DX001 (ip), vehicle: water): 98 % of control
T/C (dose: 50.0 mg/kg/injection, schedule: Q01DX009 (ip), vehicle: water): 124 % of control
T/C (dose: 100.0 mg/kg/injection, schedule: Q01DX001 (ip), vehicle: water): 101 % of control
T/C (dose: 200.0 mg/kg/injection, schedule: Q01DX001 (ip), vehicle: water): 104 % of control
T/C (dose: 400.0 mg/kg/injection, schedule: Q01DX001 (ip), vehicle: water): 114 % of control

Nc1c(Br)cc2c(c1Br)Cc1cc([N+](=O)[O-])ccc1-2
T/C (dose: 100.0 mg/kg/injection, schedule: Q04DX003 (ip), vehicle: saline with Tween-80): 104 % of control
T/C (dose: 200.0 mg/kg/injection, schedule: Q04DX003 (ip), vehicle: saline with Tween-80): 103 % of control
T/C (dose: 400.0 mg/kg/injection, schedule: Q04DX003 (ip), vehicle: saline with Tween-80): 98 % of control

CCOc1ccc(NC(=O)c2c(Br)c(Br)c(Br)c(Br)c2C(=O)O)cc1
T/C [1]: 102 % of control
T/C [2]: 87 % of control

c1ccc(-c2nc3ccccn3n2)cc1
T/C [3]: 101 % of control
T/C [4]: 95 % of control
T/C [5]: 103 % of control

N#CC1CC2c3ccccc3C1([N+](=O)[O-])c1ccccc12 (configuration not stated)
T/C [3]: 90 % of control
T/C [1]: 98 % of control
T/C [4]: 104 % of control
T/C [2]: 98 % of control
T/C [5]: 96 % of control
T/C (dose: 400.0 mg/kg/injection, schedule: Q01DX009 (ip), vehicle: Klucel (hydroxypropylcellulose) (HPC)): 103 % of control

CCC1=CCC=CC1
T/C [6]: 101 % of control
T/C [7]: 104 % of control
T/C [8]: 104 % of control
T/C [9]: 109 % of control

C=CCn1cnc2c(=S)nc[nH]c21
T/C (dose: 12.0 mg/kg/injection, schedule: Q01DX015 (ip), vehicle: other): 124 % of control
T/C (dose: 37.5 mg/kg/injection, schedule: Q01DX Z (ip), vehicle: alkali diluted with saline): 166 % of control
T/C (dose: 63.0 mg/kg/injection, schedule: Q01DX015 (ip), vehicle: other): 92 % of control
T/C (dose: 75.0 mg/kg/injection, schedule: Q01DX Z (ip), vehicle: alkali diluted with saline): 114 % of control
T/C [10]: 116 % of control
T/C (dose: 108.0 mg/kg/injection, schedule: Q01DX015 (ip), vehicle: other): 87 % of control
T/C (dose: 150.0 mg/kg/injection, schedule: Q01DX Z (ip), vehicle: alkali diluted with saline): 92 % of control

NC(=O)CSc1nnc(SCC(N)=O)s1
T/C [11]: 106 % of control
T/C [12]: 101 % of control
T/C [13]: 90 % of control

Clc1nccc2n[nH]nc12
T/C [10]: 94 % of control
T/C (dose: 100.0 mg/kg/injection, schedule: Q04DX003 (ip), vehicle: other): 103 % of control
T/C (dose: 200.0 mg/kg/injection, schedule: Q01DX001 (ip), vehicle: other): 91 % of control
T/C (dose: 200.0 mg/kg/injection, schedule: Q04DX003 (ip), vehicle: other): 100 % of control
T/C (dose: 400.0 mg/kg/injection, schedule: Q01DX001 (ip), vehicle: other): 103 % of control
T/C (dose: 400.0 mg/kg/injection, schedule: Q04DX003 (ip), vehicle: other): 107 % of control

C(=C1\CC(c2ccccc2)(c2ccccc2)N=N1)/c1ccccc1
T/C [11]: 91 % of control
T/C [12]: 114 % of control
T/C [13]: 101 % of control

O=P(c1ccc[nH]1)(c1ccc[nH]1)c1ccc[nH]1
T/C [14]: 101 % of control
T/C [15]: 93 % of control
T/C (dose: 400.0 mg/kg/injection, schedule: Q04DX002 (ip), vehicle: gum acacia): 108 % of control

Cc1cccc(OC(=O)Nc2cccc(Cl)c2)c1
T/C (dose: 100.0 mg/kg/injection, schedule: Q01DX009 (ip), vehicle: carboxymethylcellulose (CMC)): 98 % of control and 110 % of control
T/C (dose: 100.0 mg/kg/injection, schedule: Q04DX002 (ip), vehicle: Klucel (hydroxypropylcellulose) (HPC)): 95 % of control
T/C (dose: 100.0 mg/kg/injection, schedule: Q04DX002 (ip), vehicle: carboxymethylcellulose (CMC)): 93 % of control and 120 % of control and 92 % of control
T/C (dose: 100.0 mg/kg/injection, schedule: Q04DX003 (ip), vehicle: carboxymethylcellulose (CMC)): 103 % of control
T/C (dose: 200.0 mg/kg/injection, schedule: Q01DX009 (ip), vehicle: carboxymethylcellulose (CMC)): 96 % of control and 104 % of control
T/C (dose: 200.0 mg/kg/injection, schedule: Q04DX002 (ip), vehicle: Klucel (hydroxypropylcellulose) (HPC)): 92 % of control
T/C (dose: 200.0 mg/kg/injection, schedule: Q04DX002 (ip), vehicle: carboxymethylcellulose (CMC)): 97 % of control and 103 % of control and 106 % of control
T/C (dose: 200.0 mg/kg/injection, schedule: Q04DX003 (ip), vehicle: carboxymethylcellulose (CMC)): 110 % of control
T/C (dose: 400.0 mg/kg/injection, schedule: Q04DX002 (ip), vehicle: Klucel (hydroxypropylcellulose) (HPC)): 95 % of control
T/C (dose: 400.0 mg/kg/injection, schedule: Q04DX002 (ip), vehicle: carboxymethylcellulose (CMC)): 98 % of control and 100 % of control and 124 % of control
T/C (dose: 400.0 mg/kg/injection, schedule: Q04DX003 (ip), vehicle: carboxymethylcellulose (CMC)): 94 % of control

CC1(C(=O)O)CCCC1C(CCC(=O)O)C(=O)O (configuration not stated)
T/C (dose: 100.0 mg/kg/injection, schedule: Q01DX001 (ip), vehicle: saline): 97 % of control
T/C (dose: 200.0 mg/kg/injection, schedule: Q01DX001 (ip), vehicle: saline): 95 % of control
T/C (dose: 400.0 mg/kg/injection, schedule: Q01DX001 (ip), vehicle: saline): 92 % of control

C/C(=C\c1ccccc1)C(=O)C1C(c2ccccc2)CC(=O)C(C)C1c1ccccc1 (configuration not stated)
T/C (dose: 50.0 mg/kg/injection, schedule: Q04DX002 (ip), vehicle: saline + alcohol): 98 % of control
T/C (dose: 100.0 mg/kg/injection, schedule: Q04DX002 (ip), vehicle: saline + alcohol): 91 % of control
T/C (dose: 200.0 mg/kg/injection, schedule: Q04DX002 (ip), vehicle: saline + alcohol): 91 % of control

CC(CC(C)O)=NCCN=C(C)CC(C)O.[Ni] (configuration not stated)
T/C (dose: 6.25 mg/kg/injection, schedule: Q01DX009 (ip), vehicle: saline with Tween-80): 108 % of control
T/C (dose: 12.5 mg/kg/injection, schedule: Q01DX009 (ip), vehicle: saline with Tween-80): 89 % of control

CCOC(=O)N1C(=O)C2C3CCC(O3)C2C1=O (configuration not stated)
T/C [16]: 107 % of control
T/C [17]: 110 % of control

CCCCCCCCCCCCCCN=C(N)N
T/C [6]: 105 % of control
T/C [7]: 97 % of control
T/C [8]: 97 % of control
T/C [9]: 94 % of control

C=CC1CN2CCC1CC2C(O)c1ccnc2ccccc12 (configuration not stated) (tested in a mixture with another compound)
T/C [16]: 101 % of control
T/C [17]: 98 % of control
T/C [7]: 91 % of control
T/C (dose: 100.0 mg/kg/injection, schedule: Q01DX009 (ip), vehicle: saline with Tween-80): 93 % of control
T/C [8]: 98 % of control
T/C [9]: 93 % of control

Cc1coc2ccccc2c1=O
T/C (dose: 50.0 mg/kg/injection, schedule: Q04DX002 (ip), vehicle: gum acacia): 114 % of control
T/C [14]: 117 % of control
T/C [15]: 107 % of control

CN(C)CCc1nn[nH]n1
T/C (dose: 100.0 mg/kg/injection, schedule: Q04DX003 (ip), vehicle: saline): 102 % of control
T/C (dose: 200.0 mg/kg/injection, schedule: Q04DX003 (ip), vehicle: saline): 97 % of control
T/C (dose: 400.0 mg/kg/injection, schedule: Q04DX003 (ip), vehicle: saline): 105 % of control

CC(=O)c1cccc2c1cc(Cl)c1ccccc12
T/C (dose: 55.0 mg/kg/injection, schedule: Q01DX Z (ip), vehicle: methylcellulose (MC)): 100 % of control
T/C (dose: 83.0 mg/kg/injection, schedule: Q01DX Z (ip), vehicle: methylcellulose (MC)): 93 % of control
T/C (dose: 125.0 mg/kg/injection, schedule: Q01DX Z (ip), vehicle: methylcellulose (MC)): 93 % of control

Reference: PubChem BioAssay AID248 (DTP/NCI, 2004)
